According to US5470852A, “Tetrahydroprotoberberine quaternary ammonium compounds useful in for treating arrhythmia” (priority 1991, dated 1995):
Where two headings read alike, the source gives them in different places.

Tests used:
[1] = test system: cardiovascular activities / arrhythmia; conditions: cited from earlier work; for cardiovascular activities: Fukuda H. et al
[2] = test system: Langendorff's perfused rat hearts; experiment: Lasting antiarrhythmic action after po administration, hearts removed and mounted on Langendorff's apparatus; type: in vivo; conditions: 10 mg/kg po at 1 hr before experiment (FIG. 4)
Experimental: 1, 3 and 6 hours after the administration of 100 mg/kg of I13 by p.o. to rats, the hearts were removed and mounted onto Langendorff's apparatus. […] (see FIG. 4)
FIG. 4. Influence of po I13 and mexiletine on the time course of reperfusion-induced arrhythmias in Langendorff's perfused rat hearts

anaesthetized rats [3] = conditions: for Arrhythmic scores / Antiarrhythmic effect: X ± SD; for Incidence of VF: n=10; for Death / animals with VF / animals without VF: of n=10
anaesthetized rats [4] = experiment: animal or person; conditions: Rattus norvegicus
rabbits = experiment: Electrically-induced ventricular fibrillation threshold (VFT) in rabbits; type: in vivo, rabbit
dogs = experiment: Ouabain-induced arrhythmia in dogs; type: in vivo, dog; conditions: for Incidence of arrhythmia: I13 iv 3 mg/kg, lidocaine iv 12 mg/kg
Experimental: (iv, 12 mg/kg) on ouabain induced arrhythmia in dogs
(Ouabain administration for 30 min)

SMILES: COc1cc2c(cc1OC)-c1cc3ccc(OC)c(OC)c3c[n+]1CC2 [palmatine]
- cardiovascular activities [1]: highly potent cardiovascular activities

SMILES: Cc1cccc(C)c1OCC(C)N (stereo not shown) [mexiletine, reference compound]
- ke [2]: 0.075

SMILES: COc1ccc2cc3[n+](cc2c1O)CCc1cc2c(cc1-3)OCO2 [berberubine]
- cardiovascular activities [1]: highly potent cardiovascular activities

SMILES: CCN(CC)CC(=O)Nc1c(C)cccc1C [Lidocaine, reference compound]
- Arrhythmic scores (anaesthetized rats [3]; iv 1.0 mg/kg): 5.3 ± 0.8
- Antiarrhythmic effect (anaesthetized rats [3]; iv 1.0 mg/kg, coronary occlusion 5 min): 1.0 ± 1.4
- Antiarrhythmic effect (anaesthetized rats [3]; iv 1.0 mg/kg, coronary occlusion 10 min): 0.38 ± 0.23
- Incidence of VF (anaesthetized rats [3]; iv 1.0 mg/kg): 50%
- Death (anaesthetized rats [3]; iv 1.0 mg/kg): 0
- animals with VF (anaesthetized rats [3]; iv 1.0 mg/kg): 3
- animals without VF (anaesthetized rats [3]; iv 1.0 mg/kg): 7
- Antiarrhythmic effect (anaesthetized rats [3]; iv 1.0 mg/kg, reperfusion 0.17 min): 3.6 ± 1.3
- Antiarrhythmic effect (anaesthetized rats [3]; iv 1.0 mg/kg, reperfusion 0.33 min): 4.4 ± 1.5
- Antiarrhythmic effect (anaesthetized rats [3]; iv 1.0 mg/kg, reperfusion 0.5 min): 5.3 ± 0.9
- Antiarrhythmic effect (anaesthetized rats [3]; iv 1.0 mg/kg, reperfusion 1 min): 2.1 ± 1.7
- Antiarrhythmic effect (anaesthetized rats [3]; iv 1.0 mg/kg, reperfusion 2 min): 1.3 ± 1.0
- Antiarrhythmic effect (anaesthetized rats [3]; iv 1.0 mg/kg, reperfusion 3 min): 0.6 ± 1.0
- Antiarrhythmic effect (anaesthetized rats [3]; iv 1.0 mg/kg, reperfusion 5 min): 0.2 ± 0.4
- Antiarrhythmic effect (anaesthetized rats [3]; iv 1.0 mg/kg, reperfusion 6 min): 0.2 ± 0.4
- Antiarrhythmic effect (anaesthetized rats [3]; iv 1.0 mg/kg, reperfusion 7 min): 0.2 ± 0.4
- Antiarrhythmic effect (anaesthetized rats [3]; iv 1.0 mg/kg, reperfusion 10 min): 0.2 ± 0.4
- Antiarrhythmic effect (anaesthetized rats [3]; iv 1.0 mg/kg, reperfusion 15 min): 0.06 ± 0.2
- Antiarrhythmic effect (anaesthetized rats [3]; iv 1.0 mg/kg, reperfusion 25 min): 0
- Arrhythmic scores (anaesthetized rats [3]; iv 3.0 mg/kg): 1.7 ± 1.8
- Antiarrhythmic effect (anaesthetized rats [3]; iv 3.0 mg/kg, coronary occlusion 5 min): 0.2 ± 0.3
- Antiarrhythmic effect (anaesthetized rats [3]; iv 3.0 mg/kg, coronary occlusion 10 min): 0.5 ± 0.6
- Incidence of VF (anaesthetized rats [3]; iv 3.0 mg/kg): 0%
- Death (anaesthetized rats [3]; iv 3.0 mg/kg): 0
- animals with VF (anaesthetized rats [3]; iv 3.0 mg/kg): 0
- animals without VF (anaesthetized rats [3]; iv 3.0 mg/kg): 10
- Antiarrhythmic effect (anaesthetized rats [3]; iv 3.0 mg/kg, reperfusion 0.17 min): 1.2 ± 1.4
- Antiarrhythmic effect (anaesthetized rats [3]; iv 3.0 mg/kg, reperfusion 0.33 min): 1.7 ± 1.8
- Antiarrhythmic effect (anaesthetized rats [3]; iv 3.0 mg/kg, reperfusion 0.5 min): 1.1 ± 1.4
- Antiarrhythmic effect (anaesthetized rats [3]; iv 3.0 mg/kg, reperfusion 1 min): 0.8 ± 1.3
- Antiarrhythmic effect (anaesthetized rats [3]; iv 3.0 mg/kg, reperfusion 2 min): 0.4 ± 1.0
- Antiarrhythmic effect (anaesthetized rats [3]; iv 3.0 mg/kg, reperfusion 3 min): 0.3 ± 0.5
- Antiarrhythmic effect (anaesthetized rats [3]; iv 3.0 mg/kg, reperfusion 5 min): 0.4 ± 0.7
- Antiarrhythmic effect (anaesthetized rats [3]; iv 3.0 mg/kg, reperfusion 6 min): 0.3 ± 0.7
- Antiarrhythmic effect (anaesthetized rats [3]; iv 3.0 mg/kg, reperfusion 7 min): 0.2 ± 0.4
- Antiarrhythmic effect (anaesthetized rats [3]; iv 3.0 mg/kg, reperfusion 10 min): 0.2 ± 0.3
- Antiarrhythmic effect (anaesthetized rats [3]; iv 3.0 mg/kg, reperfusion 15 min): 0.1 ± 0.3
- Antiarrhythmic effect (anaesthetized rats [3]; iv 3.0 mg/kg, reperfusion 25 min): 0.1 ± 0.3
- Antiarrhythmic effect (anaesthetized rats [3]; po 10 mg/kg, coronary occlusion 5 min): 0.5 ± 0.5
- Antiarrhythmic effect (anaesthetized rats [3]; po 10 mg/kg, coronary occlusion 10 min): 0.40 ± 0.22
- Antiarrhythmic effect (anaesthetized rats [3]; po 10 mg/kg, reperfusion 0.17 min): 2.6 ± 1.6
- Antiarrhythmic effect (anaesthetized rats [3]; po 10 mg/kg, reperfusion 0.33 min): 2.6 ± 1.8
- Antiarrhythmic effect (anaesthetized rats [3]; po 10 mg/kg, reperfusion 0.5 min): 2.5 ± 2.3
- Antiarrhythmic effect (anaesthetized rats [3]; po 10 mg/kg, reperfusion 1 min): 2.2 ± 1.9
- Antiarrhythmic effect (anaesthetized rats [3]; po 10 mg/kg, reperfusion 1.5 min): 2.4 ± 2.2
- Antiarrhythmic effect (anaesthetized rats [3]; po 10 mg/kg, reperfusion 3 min): 1.5 ± 2.5
- Antiarrhythmic effect (anaesthetized rats [3]; po 10 mg/kg, reperfusion 4 min): 1.1 ± 1.9
- Antiarrhythmic effect (anaesthetized rats [3]; po 10 mg/kg, reperfusion 5 min): 1.0 ± 1.9
- Antiarrhythmic effect (anaesthetized rats [3]; po 10 mg/kg, reperfusion 6 min): 0.8 ± 1.6
- Antiarrhythmic effect (anaesthetized rats [3]; po 10 mg/kg, reperfusion 7 min): 1.3 ± 2.5
- Antiarrhythmic effect (anaesthetized rats [3]; po 10 mg/kg, reperfusion 15 min): 1.4 ± 2.9
- Antiarrhythmic effect (anaesthetized rats [3]; po 10 mg/kg, reperfusion 25 min): 1.4 ± 2.9
- Antiarrhythmic effect (anaesthetized rats [3]; po 30 mg/kg, coronary occlusion 5 min): 0.9 ± 0.7
- Antiarrhythmic effect (anaesthetized rats [3]; po 30 mg/kg, coronary occlusion 10 min): 1.0 ± 0.9
- Antiarrhythmic effect (anaesthetized rats [3]; po 30 mg/kg, reperfusion 0.17 min): 1.7 ± 1.5
- Antiarrhythmic effect (anaesthetized rats [3]; po 30 mg/kg, reperfusion 0.33 min): 1.8 ± 1.6
- Antiarrhythmic effect (anaesthetized rats [3]; po 30 mg/kg, reperfusion 0.5 min): 1.0 ± 1.0
- Antiarrhythmic effect (anaesthetized rats [3]; po 30 mg/kg, reperfusion 1 min): 0.6 ± 0.9
- Antiarrhythmic effect (anaesthetized rats [3]; po 30 mg/kg, reperfusion 1.5 min): 0.5 ± 0.6
- Antiarrhythmic effect (anaesthetized rats [3]; po 30 mg/kg, reperfusion 3 min): 0.2 ± 0.2
- Antiarrhythmic effect (anaesthetized rats [3]; po 30 mg/kg, reperfusion 4 min): 0.2 ± 0.2
- Antiarrhythmic effect (anaesthetized rats [3]; po 30 mg/kg, reperfusion 5 min): 0.2 ± 0.2
- Antiarrhythmic effect (anaesthetized rats [3]; po 30 mg/kg, reperfusion 6 min): 0.2 ± 0.3
- Antiarrhythmic effect (anaesthetized rats [3]; po 30 mg/kg, reperfusion 7 min): 0.2 ± 0.3
- Antiarrhythmic effect (anaesthetized rats [3]; po 30 mg/kg, reperfusion 15 min): 0.3 ± 0.3
- Antiarrhythmic effect (anaesthetized rats [3]; po 30 mg/kg, reperfusion 25 min): 0.2 ± 0.3
- ED50 (anaesthetized rats [4]; iv): 2.23 mg/kg
- oral administration ([1]; clinical use): can not be administered orally
- prevention of ventricular fibrillation ([1]; clinical use): can not effectively prevent ventricular fibrillation
- suppression of arrhythmia ([1]; clinical use): can effectively suppress arrhythmia
- VFT Before (rabbits; baseline, iv 15 mg/kg group): 5.6 ± 0.9 volt
- VFT After (rabbits; iv 15 mg/kg): 8.8 ± 1.6 volt
- ΔVFT (rabbits; iv 15 mg/kg): 3.3 ± 0.9 volt
- Incidence of arrhythmia (dogs; 0 min (before administration)): 97 ± 8%
- Incidence of arrhythmia (dogs; 5 min): 83 ± 41%
- Incidence of arrhythmia (dogs; 10 min): 74 ± 42%
- Incidence of arrhythmia (dogs; 15 min): 55 ± 46%
- Incidence of arrhythmia (dogs; 20 min): 42 ± 45%
- Incidence of arrhythmia (dogs; 25 min): 16 ± 24%
- Incidence of arrhythmia (dogs; 30 min): 10 ± 17%
- Incidence of arrhythmia (dogs; 35 min): 8 ± 10%
- Incidence of arrhythmia (dogs; 40 min): 28 ± 25%
- Incidence of arrhythmia (dogs; 45 min): 10 ± 14%
- Incidence of arrhythmia (dogs; 50 min): 8 ± 15%
- Incidence of arrhythmia (dogs; 60 min): 10 ± 21%
- reoccurrence of arrhythmia (dogs; within 4 hour period): reoccurrences of VPBs, VT and VF have been detected

SMILES: CCCNCC(O)COc1ccccc1C(=O)CCc1ccccc1 (stereo not shown) [propafenon, reference compound]
- Arrhythmic scores (anaesthetized rats [3]; po 10 mg/kg): 2.6 ± 1.6
- Incidence of VF (anaesthetized rats [3]; po 10 mg/kg): 20%
- Death (anaesthetized rats [3]; po 10 mg/kg): 2
- animals with VF (anaesthetized rats [3]; po 10 mg/kg): 1
- animals without VF (anaesthetized rats [3]; po 10 mg/kg): 7
- Arrhythmic scores (anaesthetized rats [3]; po 30 mg/kg): 1.8 ± 1.6
- Incidence of VF (anaesthetized rats [3]; po 30 mg/kg): 0%
- Death (anaesthetized rats [3]; po 30 mg/kg): 0
- animals with VF (anaesthetized rats [3]; po 30 mg/kg): 0
- animals without VF (anaesthetized rats [3]; po 30 mg/kg): 10
- ED50 (anaesthetized rats [4]; po): 19.3 mg/kg

SMILES: O=C(NCC1CCCCN1)c1cc(OCC(F)(F)F)ccc1OCC(F)(F)F (stereo not shown) [Flecainide]
- side effects [1]: marked side effects of pulmonary fibrosis and thyroid function change
- effect upon arrhythmia ([1]; clinical use): good effect upon arrhythmia

SMILES: COc1ccc2cc3[n+](cc2c1OC)CCc1cc2c(cc1-3)OCO2 [berberine]
- cardiovascular activities [1]: highly potent cardiovascular activities
